System: COLO 205 cells
Experiment: Western blot of NOXA and PUMA protein expression after aripiprazole treatment
Format: cell-based
Settings: 8 hours after treatment, Western blot (FIG. 1)
Method: To identify an effect of aripiprazole on the expression of NOXA and PUMA proteins in cancer cells, COLO 205 cells were treated with aripiprazole. Eight hours later, proteins were extracted from cells after washing with PBS, and a level of NOXA and PUMA expression was checked via Western blot.

## O=C1CCc2ccc(OCCCCN3CCN(c4cccc(Cl)c4Cl)CC3)cc2N1 [aripiprazole]
  expression of NOXA protein: increased
  expression of PUMA protein: increased

Reference: patent publication US20250312334A1, “COMPOSITION CONTAINING ARIPIPRAZOLE AS ACTIVE INGREDIENT FOR ENHANCING ANTICANCER EFFECT OF RAF INHIBITOR” (KOREA INSTITUTE OF RADIOLOGICAL & MEDICAL SCIENCES, priority 2022, published 2025)
